These results are taken from patent US20240299435A1, “COMPOSITIONS CONTAINING ADENOSINE TRIPHOSPHATE (ATP) AND METHODS OF USE FOR COGNITIVE FUNCTION” (priority 2021, published 2024).

SMILES strings stand for the structures.

For assay [1] the following is noted: 225 mg per day enteric-coated ATP for 15 days; cited from earlier work.
The conditions of assay [2]: 400 mg per day ATP for 15 days; cited from earlier work.
Assay [3] can be described thus: Dynavision D2 Mode B (reactive) visuomotor reaction time task with cognitive stressor before and after a 3-minute all-out cycling test (3 MT). It is filed as in vivo, human. On the procedure:
(§1) This study followed a double-blind, randomized cross-over design. Participants were randomized to either PeakATP or Placebo and consumed their assigned supplement for a period of 14-days. Following supplementation, participants reported back to the lab within 24-hours for the first of two experimental trials, which occurred in a randomized, counterbalanced cross-over fashion. During experimental trial 1 (T1), participants ingested an acute dose of their assigned supplement 30 minutes before completing pre-testing assessments (Dynavision D2) followed by a 3-minute all-out high-intensity effort (3 MT) on a cycle ergometer. […]
(§2) A convenience sample of healthy, recreationally active individuals were recruited. […] To be included in this study, participants were required to be healthy and ready for activity as determined by physical activity readiness questionnaire (Par-Q+) and Medical History questionnaire (MHQ), be classified as recreationally active (≥150 minutes exercise per week) and not be taking and be willing to abstain from creatine or beta-alanine supplementation or be willing to complete a 4-week wash-out period prior to enrolling if taking creatine or beta-alanine and be willing to abstain from supplementing with either for the duration of the study. […]
(§3) Reaction time was assessed using the Dynavision D2 visuomotor training device. […]

Assay [4] is described as follows: Dynavision D2 Mode A (proactive) visuomotor reaction time task before and after a 3-minute all-out cycling test (3 MT). Conditions: at 60 P; p=0.028. It is filed as in vivo, human. As to the method: as §1, §2, §3

Take `Nc1ncnc2c1ncn2[C@@H]1O[C@H](COP(=O)(O)OP(=O)(O)OP(=O)(O)O)[C@@H](O)[C@H]1O` [ATP, adenosine-5′-triphosphate]: the “total bench press lifting volume and within-group set-one repetitions to failure” value in assay [1] is “increased”. Besides, the “minimum peak torque in set two of a knee extensor bout” value in assay [2] was “increased”. Moreover, the “Mode B avgRT compared to PRE” value in assay [3] (at IP (p=0.015) and 60 P (p=0.001)) is “significantly faster”. Further, in assay [3] (at any time point, p's>0.05), the “Mode B avgRT compared to placebo” value was “not significantly different”. Moreover, in assay [4], the “Mode A number of hits compared to placebo” value is recorded as “significantly greater”.
